According to publication PMC11264232, “Are the metal identity and stoichiometry of metal complexes important for colchicine site binding and inhibition of tubulin polymerization?” (Dalton Transactions (Cambridge, England : 2003), 2024):
Values joined by “and” are separate entries in the source; they are usually repeats but may differ in a detail not shown here. Equal entries are not always repeated. Where two headings read alike, the source gives them in different places. Marks after values point to notes of the source that are not given here.

Legend:
[1] = system: A549 human lung adenocarcinoma cells; assay: MTT viability assay, 24 h; conditions: Homo sapiens, A549, 24 h, read-out: IC50 values A549
Description: (§2) We wanted to compare the cytotoxicity of proligands HL^1–HL^3 and of their Co(III) and Fe(III) complexes 1, 2 and 4, 5 on cell lines originating from the same tissue, so human lung carcinoma A549 cells and lung fibroblast MRC-5 cells were subjected to 24 h treatments.
(§3) The biological effects of selected metal complexes (1, 2, 4 and 5) and of their proligands (HL^1, HL^2 and HL^3) were tested more extensively on A549 human lung adenocarcinoma cells and on MRC-5 human lung fibroblast cells. Both cell lines were obtained from ATCC and maintained in DMEM cell culture media containing 1.0 g L^−1 glucose (Biosera, Nuaille, France) complemented with 10% fetal bovine serum (FBS), 2 mM L-glutamine, 0.01% streptomycin and 0.005% penicillin and were cultured under standard conditions in a 37 °C incubator at 5% CO2 and 95% humidity. The viability of A549 and of MRC-5 fibroblast cells upon exposure to the selected metal–ligand complexes and ligands were evaluated by the MTT assay. For this, 10 000 cells per well were seeded into 96-well plates and left to grow. On the next day the cells were exposed to 0, 5, 10, 20, 40 or 80 μM of each compound or to an equivalent volume of DMSO for 24 h. After the treatments, cells were washed with PBS and then were incubated with 0.5 mg mL^−1 MTT reagent (Sigma-Aldrich, St Louis, Missouri, USA) for 1 h at 37 °C. Finally, 100 μL of DMSO (Molar Chemicals, Halásztelek, Hungary) was added to each well, and the absorbance of samples was measured at 570 nm using a Synergy HTX plate reader (BioTek, Winooski, Vermont, USA). The viability measurements were repeated three times using 3 independent biological replicates.

[2] = pKa by pH-potentiometric titration; type: physicochemical; conditions: 30% (v/v) DMSO/H2O, 25.0 °C, I = 0.1 M (KCl), anoxic
Description: Therefore, the proton dissociation constants (pKa) of the proligands HL^1–HL^3 were determined under anoxic conditions by pH-potentiometric titrations (Fig. S14 in the ESI ^†). As this method requires relatively high compound concentrations (>1 mM), the measurements were performed in 30% (v/v) DMSO to achieve the required solubility. Three pKa values were determined for the proligands HL^1 and HL^2, whereas only two constants, as expected, were obtained for phenyl derivative HL^3 (Table 3). The constants obtained were assigned to the deprotonation NmorpholiniumH^+ (NmorphH^+), NhydrazineH (NhydrH) and OH moieties for HL^1 and HL^2, and to the NmorphH^+ and NhydrH for HL^3, respectively. It should be noted that we could not determine pKa values for the pyridinium group as its deprotonation in all three instances took place at fairly low pH values (pH < 2) due to the electron withdrawing effect of the protonated morpholinium moiety. The determined pKa values indicate that these compounds are in their neutral HL form at pH 7.4 and only a minor fraction (1–3%) is protonated ((HL)H^+) at the morpholinium nitrogen (Table 3).

[3] = n-octanol/water partitioning (shake-flask), log D; conditions: n-octanol/buffered aqueous solution, pH 6
[4] = system: MRC-5 human lung fibroblast cells; assay: MTT viability assay, 24 h; conditions: Homo sapiens, MRC5, 24 h, read-out: IC50 values MRC-5
Description: as §2, §3

[5] = Cyclic voltammetry in DMSO/nBu4NPF6; type: physicochemical; conditions: scan rate 100 mV s^−1
Description: Cyclic voltammetric experiments with 0.5 mM solutions of 1–3 in 0.1 M nBu4NPF6 (puriss quality from Fluka (Schwerte, Germany), dried under reduced pressure at 70 °C for 24 h before use) supporting electrolyte in DMSO (SeccoSolv max. 0.025% H2O, Merck) were performed under argon atmosphere using a three-electrode setup with a platinum disk or a glassy carbon disk working electrode (from Ionode, Australia), platinum wire as a counter electrode, and silver wire as a pseudo reference electrode. All potentials in voltammetric studies were quoted vs. ferricenium/ferrocene (Fc^+/Fc) redox couple. A Heka PG310USB (Lambrecht, Germany) potentiostat with a PotMaster 2.73 software package served for the potential control in voltammetric studies. In situ ultraviolet-visible-near-infrared (UV–Vis–NIR) spectroscopic and spectroelectrochemical measurements were performed on a spectrometer Avantes (Model AvaSpec-2048_14-USB2) in 1 cm quartz cuvette or the spectroelectrochemical cell kit ([…]3) with the Pt-microstructured honeycomb working electrode, purchased from Pine Research Instrumentation (Lyon, France). The cell was positioned in the CUV-UV Cuvette Holder (Ocean Optics, Ostfildern, Germany) connected to the diode-array UV–Vis–NIR spectrometer by optical fibres. UV–Vis–NIR spectra were processed using the AvaSoft 7.7 software package. Halogen and deuterium lamps were used as light sources (Avantes, Model AvaLight-DH-S-BAL, Apeldoorn, The Netherlands). EPR spectra were measured with a X-band cw-EPR spectrometers EMX and EMX plus (Bruker) at room temperature or 100 K. Spectroelectrochemical experiments were performed in a flat cell equipped with a Pt mesh working electrode using nBu4NPF6/DMSO electrolyte. Measurements in frozen solvent glass were done in MeCN/DMF 1 : 1 v/v. Complexes 4 and 5 were dissolved under ambient conditions, and complex 3 was reduced with a stoichiometric equivalent of cobaltocene in a N2 glovebox (N2 < 2 ppm, H2O < 1 ppm). The MeCN/DMF solutions were flash frozen in liquid N2 prior to transfer to the N2 flow cryostat precooled at 100 K inside the cavity of the EPR resonator. EPR spectra were analyzed with the Easyspin toolbox,[75] running on Matlab.

[6] = system: purified tubulin; assay: Inhibition of tubulin polymerization; type: biochemical; conditions: read-out: Inhibition of tubulin polymerization IC50 ± SD
Excerpt: As a reference for comparison, combretastatin A-4 (CA-4) and Cu(HL^1)Cl2 were used.
(§1) The methods used for determination of the IC50 values for tubulin assembly and inhibition of [^3H]colchicine binding were as described previously.[77]

[7] = system: tubulin (colchicine site); assay: Inhibition of [3H]colchicine binding to tubulin; conditions: tubulin 0.5 μM, [3H]colchicine 5 μM
Excerpt: as §1

IC50 [1] [µM]	pKa ([2]; read-out: pKa (NhydrH))	pKa ([2]; read-out: pKa (NmorphH^+))	pKa ([2]; read-out: pKa (OH))	logD [3]	SMILES	IC50 [4] [µM]	1st oxidation potential (peak potential Ep) [5]	1st reduction potential (E1/2 or Ep) [5]	2nd reduction potential (E1/2 or Ep) [5]	IC50 [6] [µM]	Inhibition of colchicine binding, % inhibition ± SD ([7]; 5 μM inhibitor) [%]	Inhibition of colchicine binding, % inhibition ± SD ([7]; 25 μM inhibitor) [%]
> 80	10.41 ± 0.03	5.85 ± 0.04	12.23 ± 0.02	1.5	C/C(=N\NC(=S)Nc1cc(C)c(O)c(C)c1)c1cccc(CN2CCOCC2)n1 [HL^2, 6-morpholinomethyl-2-acetylpyridine 4N-(4-hydroxy-3,5-dimethylphenyl)-3-thiosemicarbazone]	> 80						
					Cc1cc(NC([S-])=NN=Cc2cccc(C[NH+]3CCOCC3)n2)cc(C)c1O.[Cl-].[Cl-].[Pd+2] [Complex 8, [Pd^II(HL^1)Cl]Cl]		0.28 volts vs. Fc^+/Fc and 0.28^i* volts vs. Fc^+/Fc	−0.91^q volts vs. Fc^+/Fc	−1.28^q volts vs. Fc^+/Fc	6.5 ± 1	13 ± 5	97 ± 1
					Cc1cc(NC([S-])=NN=Cc2cccc(CN3CCOCC3)n2)cc(C)c1O.[Cl-].[Ni+2] [Complex 6, [Ni^II(L^1)]Cl]		0.12 volts vs. Fc^+/Fc and 0.12^i* volts vs. Fc^+/Fc	−1.29 volts vs. Fc^+/Fc and −1.29^q volts vs. Fc^+/Fc	−1.87 volts vs. Fc^+/Fc and −1.87^q volts vs. Fc^+/Fc	> 20		
72.8 ± 1.22	10.44 ± 0.03	5.54 ± 0.03	12.12 ± 0.02	1.23	Cc1cc(NC(=S)N/N=C/c2cccc(CN3CCOCC3)n2)cc(C)c1O [HL^1, 6-morpholinomethyl-2-formylpyridine 4N-(4-hydroxy-3,5-dimethylphenyl)-3-thiosemicarbazone]	> 80						
> 80	10.44 ± 0.03	5.55 ± 0.02		2.06	S=C(N/N=C/c1cccc(CN2CCOCC2)n1)Nc1ccccc1 [HL^3, 6-morpholinomethyl-2-formylpyridine 4N-phenyl-3-thiosemicarbazone]	> 80						
					COc1ccc(/C=C\c2cc(OC)c(OC)c(OC)c2)cc1O [C-A4, combretastatin A-4, reference compound]					[…]	97 ± 0.5	
